The numbers were not newly measured in patent US12364661B2, “Deformable nano-scale vehicles (DNVS) for trans-blood brain barrier, trans-mucosal, and transdermal drug delivery” (The Regents of the University of California, priority 2015, dated 2025), which cites them from elsewhere.

The conditions of this data set: measured experimentally.

In the case of `CCCN[C@H]1CCc2nc(N)sc2C1` [Pramipexole, pramipexole], the “log P” value is given as 0.4.
